According to publication PMC8269059, “Glycyrrhizin Derivatives Suppress Cancer Chemoresistance by Inhibiting Progesterone Receptor Membrane Component 1” (Cancers, 2021):
Entries after “also recorded” stand apart in the source; their conditions may differ.

Columns and labels:
PGRMC1-PGRMC1 binding = target: T1, PGRMC1-PGRMC1 binding (Homo sapiens, UniProt O00264); test: Co-immunoprecipitation of endogenous PGRMC1 with FLAG-PGRMC1 in HCT116 cells; assay type: cell-based; details: HCT116, co-IP of endogenous PGRMC1 with FLAG-PGRMC1, GL 12 hr
T1 construct: mammalian FLAG-tagged expression vector pCMV-FLAG-PGRMC1 (full-length); Endogenous PGRMC1 (25 kDa) was co-immunoprecipitated; expressed in transfected cells; host or cells: HCT116
Protocol: An expression vector of pCMV-3xFLAG-PGRMC1 or an empty vector was transfected into HCT116 cells or HuH7 cells using the transfection reagent Lipofectamine 2000 (Invitrogen). The cells were incubated overnight with either GL or GlucoGL. Cells were then lysed with NP40 lysis buffer (20 mM Tris-HCl [pH 7.5], 150 mM NaCl, and 1% NP40). The lysates were incubated with 10 μL of equilibrated anti-FLAG (M2) agarose for 60 min at room temperature. Bound proteins were washed three times and subjected to SDS-PAGE and visualized through western blotting using antibodies against FLAG, EGFR, and LDLR. For analysis of the endogenous PGRMC1-binding with FLAG-PGRMC1, HCT116 cells (1 × 10^7 cells) were treated with vehicle or 250 μM SA and/or 10 μM hemin for 48 h, and the cell lysates were co-immunoprecipitated with anti-FLAG (M2) agarose. Bound proteins (endogenous PGRMC1 and FLAG-tagged PGRMC1) were visualized through western blotting using antibody against PGRMC1.

PGRMC1 Q149F = target: T2, PGRMC1 Q149F (Homo sapiens, UniProt O00264, Q149F); test: ITC binding of GL to PGRMC1 mutant Q149F
T2 construct: human PGRMC1 intracellular domain residues 43-195; GST (N, cleaved yes); made in house; host or cells: E. coli BL21 (DE3)
Description: (§1) Bacterial expression vectors pGEX-PGRMC1 (human PGRMC1 intracellular domain residues 43-195) and mammalian FLAG-tagged expression vector pCMV-FLAG-PGRMC1 (full-length) were constructed as described previously. Expression vectors for PGRMC1 point mutants were generated by site-directed mutagenesis with PCR. For construction of HMGB1 expression vector, human HMGB1 full-length cDNA was cloned from cDNA library of HCT116 cells using the primers (Forward: 5′-[…]-3′, Reverse: 5′-[…]-[…]-3′), digested with Bam HI and Sal I, and then ligated into pGEX6P1.
(§2) ITC experiments were performed at 298 K with ITC-Buffer (50 mM phosphate [pH 7.0]) using a MicroCal iTC200 (Malvern Panalytical, Malvern, UK). GL derivatives were dissolved in […] and titrated into 100 μM apo-PGRMC1, heme-bound-PGRMC1, or HMGB1 protein. Titration was performed by injecting 2 µL of the syringe solution at intervals of 120 s. Binding isotherms were analyzed using SEDPHAT [35]. The binding of AG205 to apo- or heme-PGRMC1 (100 μM) was analyzed using a concentration of 3 mM containing 1% DMSO. The binding affinities of GL derivatives for HMGB1 (80 µM) were analyzed using a concentration of 3 mM.

PGRMC1 G111W = target: T3, PGRMC1 G111W (Homo sapiens, UniProt O00264, G111W); test: ITC binding of GL to PGRMC1 mutant G111W
T3 construct: human PGRMC1 intracellular domain residues 43-195; GST (N, cleaved yes); made in house; host or cells: E. coli BL21 (DE3)
Description: as §1, §2

PGRMC1 G108W = target: T4, PGRMC1 G108W (Homo sapiens, UniProt O00264, G108W); test: ITC binding of GL to PGRMC1 mutant G108W
T4 construct: human PGRMC1 intracellular domain residues 43-195; GST (N, cleaved yes); made in house; host or cells: E. coli BL21 (DE3)
Description: as §1, §2

PGRMC1 A147W = target: T5, PGRMC1 A147W (Homo sapiens, UniProt O00264, A147W); test: ITC binding of GL to PGRMC1 mutant A147W
T5 construct: human PGRMC1 intracellular domain residues 43-195; GST (N, cleaved yes); made in house; host or cells: E. coli BL21 (DE3)
Description: as §1, §2

PGRMC1 T146W = target: T6, PGRMC1 T146W (Homo sapiens, UniProt O00264, T146W); test: ITC binding of GL to PGRMC1 mutant T146W
T6 construct: human PGRMC1 intracellular domain residues 43-195; GST (N, cleaved yes); made in house; host or cells: E. coli BL21 (DE3)
Description: as §1, §2

PGRMC1 K132V = target: T7, PGRMC1 K132V (Homo sapiens, UniProt O00264, K132V); test: ITC binding of GL to PGRMC1 mutant K132V
T7 construct: human PGRMC1 intracellular domain residues 43-195; GST (N, cleaved yes); made in house; host or cells: E. coli BL21 (DE3)
Description: as §1, §2

PGRMC1 F128W = target: T8, PGRMC1 F128W (Homo sapiens, UniProt O00264, F128W); test: ITC binding of GL to PGRMC1 mutant F128W
T8 construct: human PGRMC1 intracellular domain residues 43-195; GST (N, cleaved yes); made in house; host or cells: E. coli BL21 (DE3)
Description: as §1, §2

apo-PGRMC1 = target: T9, apo-PGRMC1 (Homo sapiens, UniProt O00264); test: ITC binding to apo-PGRMC1; details: apo-monomer form
T9 construct: human PGRMC1 intracellular domain residues 43-195; GST (N, cleaved yes); made in house; host or cells: E. coli BL21 (DE3)
Description: as §1
Expression vectors (pGEX-PGRMC1 (residues 43-195) or pGEX-HMGB1) were transformed into BL21 (DE3) competent E. coli cells, and the cells incubated in LB medium with ampicillin at 37 °C until the OD600 reached 0.8. Protein expression was induced by adding 1 mM isopropyl-β-thiogalactopyranoside (IPTG) and incubating at 37 °C for 4 h. […]
ITC experiments were performed at 298 K with ITC-Buffer (50 mM phosphate [pH 7.0]) using a MicroCal iTC200 (Malvern Panalytical, Malvern, UK). […] Binding isotherms were analyzed using SEDPHAT [35]. The binding of AG205 to apo- or heme-PGRMC1 (100 μM) was analyzed using a concentration of 3 mM containing 1% DMSO. […]

T2 sequence (O00264 43-195 Q149F): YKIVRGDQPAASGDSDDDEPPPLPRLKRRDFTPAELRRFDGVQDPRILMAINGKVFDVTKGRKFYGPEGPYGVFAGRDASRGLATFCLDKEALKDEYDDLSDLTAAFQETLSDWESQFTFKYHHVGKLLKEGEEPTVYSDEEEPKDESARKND
T4 sequence (O00264 43-195 G108W): as the sequence (O00264 43-195 Q149F) above, with G66W, F107Q counted along it
T5 sequence (O00264 43-195 A147W): as the sequence (O00264 43-195 Q149F) above, with A105W, F107Q counted along it
T8 sequence (O00264 43-195 F128W): as the sequence (O00264 43-195 Q149F) above, with F86W, F107Q counted along it
T7 sequence (O00264 43-195 K132V): as the sequence (O00264 43-195 Q149F) above, with K90V, F107Q counted along it
T3 sequence (O00264 43-195 G111W): as the sequence (O00264 43-195 Q149F) above, with G69W, F107Q counted along it
T6 sequence (O00264 43-195 T146W): as the sequence (O00264 43-195 Q149F) above, with T104W, F107Q counted along it
T9 sequence (O00264 43-195): as the sequence (O00264 43-195 Q149F) above, with F107Q counted along it
T1 sequence (O00264 whole entry): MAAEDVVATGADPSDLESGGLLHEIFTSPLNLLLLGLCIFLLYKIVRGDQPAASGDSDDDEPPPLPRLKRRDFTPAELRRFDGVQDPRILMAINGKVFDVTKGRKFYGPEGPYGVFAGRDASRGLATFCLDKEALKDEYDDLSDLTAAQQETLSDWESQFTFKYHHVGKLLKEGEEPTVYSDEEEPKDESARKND
T1 sequence (O00264 whole entry): as above

PGRMC1-PGRMC1 binding (PGRMC1-PGRMC1 binding): did not affect
Kd (PGRMC1 Q149F): 403 µM
TΔS (PGRMC1 Q149F): −10.62 K･kcal/mol
ΔH (PGRMC1 Q149F): -14.37 kcal/mol
Kd (PGRMC1 G111W): 108 µM
TΔS (PGRMC1 G111W): 4.39 K･kcal/mol
ΔH (PGRMC1 G111W): -1.86 kcal/mol
Kd (PGRMC1 G108W): 185 µM
TΔS (PGRMC1 G108W): 1.58 K･kcal/mol
ΔG (PGRMC1 G108W): -5.09 kcal/mol
ΔH (PGRMC1 G108W): -3.51 kcal/mol
Kd (PGRMC1 A147W): 158 µM
TΔS (PGRMC1 A147W): 2.10 K･kcal/mol
ΔG (PGRMC1 A147W): -5.19 kcal/mol
ΔH (PGRMC1 A147W): -3.09 kcal/mol
Kd (PGRMC1 T146W): 97.9 µM
TΔS (PGRMC1 T146W): 2.64 K･kcal/mol
ΔH (PGRMC1 T146W): -2.17 kcal/mol
Kd (PGRMC1 K132V): 84.6 µM
TΔS (PGRMC1 K132V): 4.55 K･kcal/mol
ΔG (PGRMC1 K132V): -5.56 kcal/mol
ΔH (PGRMC1 K132V): -1.01 kcal/mol
Kd (PGRMC1 F128W): 137 µM
TΔS (PGRMC1 F128W): 0.38 K･kcal/mol
ΔG (PGRMC1 F128W): -5.27 kcal/mol
ΔH (PGRMC1 F128W): -4.90 kcal/mol
Compound: CC1(C)[C@@H](O[C@H]2O[C@H](C(=O)O)[C@@H](O)[C@H](O)[C@H]2O[C@@H]2O[C@H](C(=O)O)[C@@H](O)[C@H](O)[C@H]2O)CC[C@]2(C)[C@H]3C(=O)C=C4[C@@H]5C[C@@](C)(C(=O)O)CC[C@]5(C)CC[C@@]4(C)[C@]3(C)CC[C@@H]12 [Glycyrrhizin (GL), Glycyrrhizin]
Binding to apo-PGRMC1 (apo-PGRMC1): No Binding; also recorded: not to the apo-monomer form
